system: Bmi-1 protein; experiment: Sandwich ELISA Assay (Bmi-1 protein level in HT-1080 cells); format: cell-based
Description: Cell Seeding and Compound Treatment (Day 1):
HT-1080 cells were seeded at 8000 cells/well (50 μL) in 96-well tissue culture plates. After the cells became adherent (3-4 hours), 2× diluted stocks of test compounds in 50 μL DMEM containing 1% DMSO (final DMSO concentration was 0.5%) were added and the plates were incubated at 37° C. under 5% CO2 for 40-48 hours.
ELISA Plate First Antibody Preparation (Day 2):
The First Antibody (Millipore Mouse, monoclonal to mouse Bmi-1, clone F6, catalog #05-637) diluted to 2 μg/mL in PBS was added (100 μL) to each well of a Nunc MaxiSorp 96-well ELISA plate. The plate was covered with a plate seal and allowed to stand overnight.
Cell Lysate Preparation (Day 3):
Fresh Lysis buffer (1×) was prepared on the day of the assay as follows: 1 mM EDTA, 150 mM NaCl, 0.5% Triton-X 100, 10 mM NaF, 20 mM B-Glycerophosphate, 1 mM DTT (in PBS, pH 7.2-7.4) and HALT protease inhibitor cocktail (1×) (Pierce #78410).
Lysis Buffer (1×, 40 μL) was added to each well and the plate was shaken for 5-10 minutes on an orbital shaker to allow cell lysis, then diluent (1% BSA in PBS in 0.5% NP40) (100 μL) was added to each well.
A standard curve was prepared at the following Bmi-1 concentrations: 8000, 4000, 2000, 1000, 500, 250, 125 and 0 pg/mL. The Bmi-1 Recombinant Protein Standard (Novus Biologicals PCGF4 Recombinant Protein (P01), catalog # H00000648-P01) used to prepare the standard curve was stored at −80° C. On first thaw, the Recombinant Protein Standard was diluted to 10 μg/μL in Blocking Buffer (1% BSA in PBS; BSA: Fisher Scientific Catalog #1600-100). Aliquots were taken and refrozen at −80° C. The aliquots may be kept at 4° C. and reused after first thaw, but only within 1-2 weeks. The Recombinant Protein Standard contains a GST-fusion tag that appears at approximately 70 Kda on Western Blot.
The prepared ELISA plate was washed 3× with Wash Buffer (0.05% Tween-20 in PBS). The final wash was removed from the plate and the plate was blotted dry. Blocking Buffer (300 μL) (1% BSA in PBS) was added to each well. The plate was covered with a plate seal and incubated at room temperature for 1 hour. The blocked plate was washed 3× with Wash Buffer, then the final wash was removed and the plate was blotted dry. The previously prepared samples and standards were added (100 μL/well) and the plate was covered with a plate seal and incubated at 4° C. overnight.
The prepared ELISA plate was removed from incubation and allowed to stand at room temperature for 30 minutes, then washed and blotted dry. The Second Antibody (Cell Signaling Rabbit anti-Bmi-1, Cat#2830) diluted to 1:600 in Blocking Buffer was added (100 μL) to each well, except as needed for background control wells. The plate was covered with a plate seal and incubated for 1.5 hrs at room temperature.
The ELISA plate was washed and blotted dry as previously described. The Third Antibody (Cell Signaling HRP conjugated anti-rabbit IgG (CellSignaling, Cat#:7074) diluted to 1:300 in Blocking Buffer was added (100 μL) to each well, except as needed for background control wells. The plate was incubated for 1 hr at room temperature.
The plate was washed and blotted dry, then a previously prepared TMB substrate (TMB substrate kit, Pierce catalog #34021) (prepared by mixing kit reagents 1:1) (100 μL) was added per well. The plate was incubated for 20-30 minutes at room temperature in the dark, then Stop Solution (2 M sulfuric acid in water) (50 μL) was added per well. The plates were read at OD450 (experimental) and OD570 (reference).

Compound | EC50
Cc1nc2ccc(F)cn2c1-c1cc(N)nc(Nc2ccc(C(F)(F)F)cc2)n1 [Cpd 1, 6-(6-fluoro-2-methylimidazo[1,2-a]pyridin-3-yl)-N^2-[4-(trifluoromethyl)phenyl]pyrimidine-2,4-diamine] | 0.001 to 0.01 µM
Cc1nn(C)c(C)c1-c1cc(N)nc(Nc2ccc(C(F)(F)F)cc2)n1 [Cpd 3, N^2-[4-(trifluoromethyl)phenyl]-6-(1,3,5-trimethyl-1H-pyrazol-4-yl)pyrimidine-2,4-diamine] | 0.001 to 0.01 µM
Cc1nc2ccc(F)cc2n1-c1cc(N)nc(Nc2ccc(C(F)(F)F)cc2)n1 [Cpd 4, 6-(6-fluoro-2-methyl-1H-benzimidazol-1-yl)-N^2-[4-(trifluoromethyl)phenyl]pyrimidine-2,4-diamine] | 0.01 to 0.1 µM
Cc1nc2ccccc2n1-c1cc(Cl)nc(Nc2ccc(C(F)(F)F)cc2)n1 [Cpd 6, 4-chloro-6-(2-methyl-1H-benzimidazol-1-yl)-N-[4-(trifluoromethyl)phenyl]pyrimidin-2-amine] | 0.1 to 3 µM
Cc1nc2ccccc2n1-c1cc(N)nc(Nc2ccc(C(F)(F)F)cc2)n1 [Cpd 7, 6-(2-methyl-1H-benzimidazol-1-yl)-N^2-[4-(trifluoromethyl)phenyl]pyrimidine-2,4-diamine] | 0.01 to 0.1 µM
Cc1nc2ccccc2n1-c1cc(Cl)nc(Nc2ccc(C(F)(F)F)c(F)c2)n1 [Cpd 8, 4-chloro-N-[3-fluoro-4-(trifluoromethyl)phenyl]-6-(2-methyl-1H-benzimidazol-1-yl)pyrimidin-2-amine] | 0.1 to 3 µM
Nc1cc(-c2c(C3CC3)nc3ccc(F)cn23)nc(Nc2ccc(OC(F)F)c(F)c2)n1 [Cpd 9, 6-(2-cyclopropyl-6-fluoroimidazo[1,2-a]pyridin-3-yl)-N^2-[4-(difluoromethoxy)-3-fluorophenyl]pyrimidine-2,4-diamine] | 0.001 to 0.01 µM
Cc1nc2ccc(F)cc2n1-c1cc(N)nc(Nc2ccc(OC(F)F)c(F)c2)n1 [Cpd 10, N^2-[4-(difluoromethoxy)-3-fluorophenyl]-6-(6-fluoro-2-methyl-1H-benzimidazol-1-yl)pyrimidine-2,4-diamine] | 0.01 to 0.1 µM
Cc1nc2ccccc2n1-c1cc(N)nc(Nc2ccc(C(F)(F)F)c(F)c2)n1 [Cpd 13, N^2-[3-fluoro-4-(trifluoromethyl)phenyl]-6-(2-methyl-1H-benzimidazol-1-yl)pyrimidine-2,4-diamine] | 0.1 to 3 µM
Cc1nc2ccccc2n1-c1cc(N)nc(Nc2ccc(OC(F)F)c(F)c2)n1 [Cpd 14, N^2-[4-(difluoromethoxy)-3-fluorophenyl]-6-(2-methyl-1H-benzimidazol-1-yl)pyrimidine-2,4-diamine] | 0.01 to 0.1 µM
Cc1nc2ccccc2n1-c1cc(NCCO)nc(Nc2ccc(C(F)(F)F)cc2)n1 [Cpd 15, 2-{[6-(2-methyl-1H-benzimidazol-1-yl)-2-{[4-(trifluoromethyl)phenyl]amino}pyrimidin-4-yl]amino}ethanol] | 0.1 to 3 µM
Cc1nc2ccccc2n1-c1cc(NCCO)nc(Nc2ccc(C(F)(F)F)c(F)c2)n1 [Cpd 16, 2-{[2-{[3-fluoro-4-(trifluoromethyl)phenyl]amino}-6-(2-methyl-1H-benzimidazol-1-yl)pyrimidin-4-yl]amino}ethanol] | 0.1 to 3 µM
Cc1nc2ccccc2n1-c1cc(NCCO)nc(Nc2ccc(OC(F)F)c(F)c2)n1 [Cpd 17, 2-{[2-{[4-(difluoromethoxy)-3-fluorophenyl]amino}-6-(2-methyl-1H-benzimidazol-1-yl)pyrimidin-4-yl]amino}ethanol] | 0.1 to 3 µM
Cc1nc2cc(F)c(F)cc2n1-c1cc(Cl)nc(Nc2ccc(C(F)(F)F)cc2)n1 [Cpd 18, 4-chloro-6-(5,6-difluoro-2-methyl-1H-benzimidazol-1-yl)-N-[4-(trifluoromethyl)phenyl]pyrimidin-2-amine] | 0.1 to 3 µM
Cc1nc2cc(F)c(F)cc2n1-c1cc(Cl)nc(Nc2ccc(C(F)(F)F)c(F)c2)n1 [Cpd 19, 4-chloro-6-(5,6-difluoro-2-methyl-1H-benzimidazol-1-yl)-N-[3-fluoro-4-(trifluoromethyl)phenyl]pyrimidin-2-amine] | 0.1 to 3 µM
Cc1nc2cc(F)c(F)cc2n1-c1cc(N)nc(Nc2ccc(C(F)(F)F)cc2)n1 [Cpd 20, 6-(5,6-difluoro-2-methyl-1H-benzimidazol-1-yl)-N^2-[4-(trifluoromethyl)phenyl]pyrimidine-2,4-diamine] | 0.01 to 0.1 µM
Cc1nc2cc(F)c(F)cc2n1-c1cc(NCCO)nc(Nc2ccc(C(F)(F)F)cc2)n1 [Cpd 21, 2-{[6-(5,6-difluoro-2-methyl-1H-benzimidazol-1-yl)-2-{[4-(trifluoromethyl)phenyl]amino}pyrimidin-4-yl]amino}ethanol] | 0.1 to 3 µM
Cc1nc2ccccc2n1-c1cc(NO)nc(Nc2ccc(C(F)(F)F)cc2)n1 [Cpd 22, N^4-hydroxy-6-(2-methyl-1H-benzimidazol-1-yl)-N^2-[4-(trifluoromethyl)phenyl]pyrimidine-2,4-diamine] | 0.01 to 0.1 µM

More lines, now with the values ahead:

EC50 | Compound
0.01 to 0.1 µM | CCc1nc2ccccc2n1-c1cc(N)nc(Nc2ccc(C(F)(F)F)cc2)n1 [Cpd 23, 6-(2-ethyl-1H-benzimidazol-1-yl)-N^2-[4-(trifluoromethyl)phenyl]pyrimidine-2,4-diamine]
0.1 to 3 µM | Cc1nc2cc(F)c(F)cc2n1-c1cc(N)nc(Nc2ccc(C(F)(F)F)c(F)c2)n1 [Cpd 24, 6-(5,6-difluoro-2-methyl-1H-benzimidazol-1-yl)-N^2-[3-fluoro-4-(trifluoromethyl)phenyl]pyrimidine-2,4-diamine]
0.1 to 3 µM | Nc1cc(-c2ccnc3ccccc23)nc(Nc2ccc(C(F)(F)F)cc2)n1 [Cpd 25, 6-(quinolin-4-yl)-N^2-[4-(trifluoromethyl)phenyl]pyrimidine-2,4-diamine]
0.01 to 0.1 µM | CCc1nc2ccc(F)cc2n1-c1cc(N)nc(Nc2ccc(C(F)(F)F)cc2)n1 [Cpd 26, 6-(2-ethyl-6-fluoro-1H-benzimidazol-1-yl)-N^2-[4-(trifluoromethyl)phenyl]pyrimidine-2,4-diamine]
0.01 to 0.1 µM | Nc1cc(-n2c(C3CC3)nc3ccc(F)cc32)nc(Nc2ccc(C(F)(F)F)cc2)n1 [Cpd 27, 6-(2-cyclopropyl-6-fluoro-1H-benzimidazol-1-yl)-N^2-[4-(trifluoromethyl)phenyl]pyrimidine-2,4-diamine]
0.001 to 0.01 µM | Nc1cc(-c2c(CO)nc3ccccn23)nc(Nc2ccc(C(F)(F)F)cc2)n1 [Cpd 28, [3-(6-amino-2-{[4-(trifluoromethyl)phenyl]amino}pyrimidin-4-yl)imidazo[1,2-a]pyridin-2-yl]methanol]
0.01 to 0.1 µM | Nc1cc(-c2c(CO)nc3ccc(F)cn23)nc(Nc2ccc(C(F)(F)F)cc2)n1 [Cpd 29, [3-(6-amino-2-{[4-(trifluoromethyl)phenyl]amino}pyrimidin-4-yl)-6-fluoroimidazo[1,2-a]pyridin-2-yl]methanol]
0.1 to 3 µM | Cc1nc2ccccc2n1-c1cc(Cl)nc(Nc2ccc(OC(F)F)c(F)c2)n1 [Cpd 30, 4-chloro-N-[4-(difluoromethoxy)-3-fluorophenyl]-6-(2-methyl-1H-benzimidazol-1-yl)pyrimidin-2-amine]
0.001 to 0.01 µM | Cc1nc2ncc(Cl)cc2n1-c1cc(N)nc(Nc2ccc(C(F)(F)F)cc2)n1 [Cpd 31, 6-(6-chloro-2-methyl-1H-imidazo[4,5-b]pyridin-1-yl)-N^2-[4-(trifluoromethyl)phenyl]pyrimidine-2,4-diamine]
0.01 to 0.1 µM | CCc1nc2ncc(Cl)cc2n1-c1cc(N)nc(Nc2ccc(C(F)(F)F)cc2)n1 [Cpd 32, 6-(6-chloro-2-ethyl-1H-imidazo[4,5-b]pyridin-1-yl)-N^2-[4-(trifluoromethyl)phenyl]pyrimidine-2,4-diamine]
0.01 to 0.1 µM | Cc1nc2c(F)cc(F)cc2n1-c1cc(N)nc(Nc2ccc(C(F)(F)F)cc2)n1 [Cpd 34, 6-(4,6-difluoro-2-methyl-1H-benzimidazol-1-yl)-N^2-[4-(trifluoromethyl)phenyl]pyrimidine-2,4-diamine]

Source: patent US10370371B2, “Substituted pyrimidine Bmi-1 inhibitors” (PTC Therapeutics, Inc., priority 2013, dated 2019)
